Structures can show the parent of a compound that is named as a salt.
Key:
DYRK1B = molecular target: T1, DYRK1B (Homo sapiens, UniProt Q9Y463); assay: DYRK1B in vitro kinase assay (ADP-Glo); format: biochemical; conditions: ADP-Glo assay, ATP 15 μM (Km), substrate 7 μM, enzyme 1 nM or 0.3 nM, 1 h, rt; read-out: DYRK1B IC50
T1 construct: purchased Carna Bioscence (Carna Biosciences) 04-131
Procedure: The compounds of the present invention were tested for their inhibitory activity against DYRK1A and DYRK1B kinases once or several times. When tested more than once, the data are reported herein as average value, wherein the average value, also referred to as the mean value, represents the sum of obtained values divided by the number of times tested. DYRK-inhibitory activity of the compounds of the present invention was tested using the ADP-Glo™ assay as described in the following paragraphs. The procedure for determining the IC50 values with the ADP-Glo™ assay in in vitro kinase assays consists of two parts: […] Kinase reaction performed under optimized conditions; 2. Detection of ADP as a product of the reaction using ADP-Glo™ system (Promega). The tested compounds indicated in Table 5 below were dissolved in DMSO, then transferred to the V-bottom PP plate to perform nine serial dilutions (in order to obtain dose-response curves) in 25% DMSO, as indicated in Table 5 below. The optimized conditions for performing DYRK1B in vitro kinase assay were as follows: [table] For compound testing, the following protocol was used: two mixes were prepared on ice, Mix 1 containing substrate, ATP and reaction buffer and Mix 2 containing reaction buffer and the kinase. 15 μL per well of Mix 1 was transferred to wells of a 96-well plate. […] Total reaction volume was 30 μL per well. The experiment was performed in duplicate for each data point being examined. Dose response curve for the positive control was carried out on each assay plate by adding the reference inhibitory compound staurosporine. For each test, three controls were also included: (i) 30 μL of the reaction mixture containing: reaction buffer, ATP, kinase, DMSO without substrate (quasi-positive control); (ii) 30 μL of the reaction mixture containing reaction buffer, substrate, ATP, DMSO without kinase (background control); (iii) 30 μL of the reaction mixture containing reaction buffer, substrate, kinase, ATP, DMSO (vehicle control). Final concentration of DMSO in the reaction was 2%. To detect the ADP amount produced during the kinase reaction, the commercially available kit ADP-Glo™ Kinase Assay (Promega, cat. No # V9103) was used. The protocol used for the detection was based on the Technical Bulletin of the ADP-Glo™ Kinase Assay (Promega) and was adapted to 96-well plate containing 30 μL reaction mixture as explained below. 30 μL of ADP-Glo™ Reagent was added to each well of a 96 well plate containing 30 μL of reaction mixture to terminate the kinase reaction and deplete the remaining ATP. The plate was incubated for 60 minutes on a shaker at rt. 60 μL of Kinase Detection Solution was then added to each well of 96-well plate containing 60 μL of the solution to convert ADP to ATP and to allow the newly synthesized ATP to be measured using a luciferase/luciferin reaction (ratio of kinase reaction volume to ADP Glo™ Reagent volume to Kinase Detection Solution volume was maintained at 1:1:2). The plate was incubated for 40 minutes on a shaker at rt, protected from light. Luminescence was measured in the plate reader, wherein the luminescent signal is proportional to the ADP concentration produced and thus correlates with kinase activity. After data normalization to controls (complete reaction mix and no-substrate control) and transforming X values (test compound concentrations) using: X=log(X), IC50 values were determined, using the GraphPad Prism 6.0 [log(agonist) vs. normalized response—Variable slope].

DYRK1A = molecular target: T2, DYRK1A (Homo sapiens, UniProt Q13627); assay: DYRK1A in vitro kinase assay (ADP-Glo); format: biochemical; conditions: ATP 70 μM (Km), substrate 3 μM, enzyme 2 nM or 0.7 nM, 30 min, rt
T2 construct: purchased Carna Bioscence (Carna Biosciences) 04-130
Procedure: The compounds of the present invention were tested for their inhibitory activity against DYRK1A and DYRK1B kinases once or several times. When tested more than once, the data are reported herein as average value, wherein the average value, also referred to as the mean value, represents the sum of obtained values divided by the number of times tested.
DYRK-inhibitory activity of the compounds of the present invention was tested using the ADP-Glo™ assay as described in the following paragraphs. The procedure for determining the IC50 values with the ADP-Glo™ assay in in vitro kinase assays consists of two parts:
1. Kinase reaction performed under optimized conditions;
2. Detection of ADP as a product of the reaction using ADP-Glo™ system (Promega).
The tested compounds indicated in Table 5 below were dissolved in DMSO, then transferred to the V-bottom PP plate to perform nine serial dilutions (in order to obtain dose-response curves) in 25% DMSO, as indicated in Table 5 below.
The optimized conditions for performing DYRK1A in vitro kinase assay were as follows:
For compound testing, the following protocol was used: two mixes were prepared on ice, Mix 1 containing substrate, ATP and reaction buffer and Mix 2 containing reaction buffer and the kinase. 15 μL per well of Mix 1 was transferred to wells of a 96-well plate. Next, 2.5 μL of the pre-diluted compound to be tested was added to Mix 1, followed by the addition of 12.5 μL of Mix 2. Total reaction volume was 30 μL per well. The experiment was performed in duplicate for each data point being examined. Dose response curve for the positive control was carried out on each assay plate by adding the reference inhibitory compound staurosporine. For each test, three controls were also included: (i) 30 μL of the reaction mixture containing: reaction buffer, ATP, kinase, DMSO without substrate (quasi-positive control); (ii) 30 μL of the reaction mixture containing reaction buffer, substrate, ATP, DMSO without kinase (background control); (iii) 30 μL of the reaction mixture containing reaction buffer, substrate, kinase, ATP, DMSO (vehicle control). Final concentration of DMSO in the reaction was 2%. To detect the ADP amount produced during the kinase reaction, the commercially available kit ADP-Glo™ Kinase Assay (Promega, cat. No # V9103) was used. The protocol used for the detection was based on the Technical Bulletin of the ADP-Glo™ Kinase Assay (Promega) and was adapted to 96-well plate containing 30 μL reaction mixture as explained below.
30 μL of ADP-Glo™ Reagent was added to each well of a 96 well plate containing 30 μL of reaction mixture to terminate the kinase reaction and deplete the remaining ATP. The plate was incubated for 60 minutes on a shaker at rt. 60 μL of Kinase Detection Solution was then added to each well of 96-well plate containing 60 μL of the solution to convert ADP to ATP and to allow the newly synthesized ATP to be measured using a luciferase/luciferin reaction (ratio of kinase reaction volume to ADP Glo™ Reagent volume to Kinase Detection Solution volume was maintained at 1:1:2). The plate was incubated for 40 minutes on a shaker at rt, protected from light. Luminescence was measured in the plate reader, wherein the luminescent signal is proportional to the ADP concentration produced and thus correlates with kinase activity.
After data normalization to controls (complete reaction mix and no-substrate control) and transforming X values (test compound concentrations) using: X=log(X), IC50 values were determined, using the GraphPad Prism 6.0 [log(agonist) vs. normalized response—Variable slope].

T1 sequence (Q9Y463 whole entry): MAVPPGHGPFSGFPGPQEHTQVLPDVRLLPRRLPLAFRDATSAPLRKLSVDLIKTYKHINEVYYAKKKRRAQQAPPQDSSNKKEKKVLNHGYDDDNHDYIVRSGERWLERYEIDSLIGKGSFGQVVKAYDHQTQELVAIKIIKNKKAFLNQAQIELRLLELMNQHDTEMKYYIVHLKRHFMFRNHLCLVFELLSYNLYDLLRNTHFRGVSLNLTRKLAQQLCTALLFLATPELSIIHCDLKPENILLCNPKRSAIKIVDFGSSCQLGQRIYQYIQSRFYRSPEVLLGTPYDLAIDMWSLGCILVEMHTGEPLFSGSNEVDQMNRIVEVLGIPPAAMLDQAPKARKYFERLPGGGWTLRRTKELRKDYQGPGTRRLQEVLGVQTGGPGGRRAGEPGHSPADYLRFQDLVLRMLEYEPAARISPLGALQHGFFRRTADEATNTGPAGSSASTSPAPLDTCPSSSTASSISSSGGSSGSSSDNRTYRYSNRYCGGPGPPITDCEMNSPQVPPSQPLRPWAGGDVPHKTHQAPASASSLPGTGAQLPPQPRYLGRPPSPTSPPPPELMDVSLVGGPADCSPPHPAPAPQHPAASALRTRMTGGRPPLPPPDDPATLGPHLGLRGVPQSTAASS

IC50 (DYRK1B) | IC50 (DYRK1A) | Compound
< 10 nM | < 10 nM | N[C@@H]1CCCN(c2ccnc3c(F)cc(-c4c[nH]c5ncc(C(=O)NCc6cccnc6)cc45)cc23)C1 [Example 48, 3-{4-[(3R)-3-Aminopiperidin-1-yl]-8-fluoroquinolin-6-yl}-N-(pyridin-3-ylmethyl)-1H-pyrrolo[2,3-b]pyridine-5-carboxamide hydrochloride]
< 10 nM | < 10 nM | CC(=O)Nc1cnc2[nH]cc(-c3cc(F)c4nccc(-c5cccnc5)c4c3)c2c1 [Example 46, N-{3-[8-Fluoro-4-(pyridin-3-yl)quinolin-6-yl]-1H-pyrrolo[2,3-b]pyridin-5-yl}acetamide]
< 10 nM | < 10 nM | CNC(=O)c1cnc2[nH]cc(-c3cc(F)c4nccc(CCc5ccccc5)c4c3)c2c1 [Example 40, 3-[8-Fluoro-4-(2-phenylethyl)quinolin-6-yl]-N-methyl-1H-pyrrolo[2,3-b]pyridine-5-carboxamide]
< 10 nM | 10 to 100 nM | C=CCN(C)Cc1cnc2[nH]cc(-c3cc(F)c4nccc(-c5cccnc5)c4c3)c2c1 [Example 52, ({3-[8-Fluoro-4-(pyridin-3-yl)quinolin-6-yl]-1H-pyrrolo[2,3-b]pyridin-5-yl}methyl)(methyl)(prop-2-en-1-yl)amine]
< 10 nM | 10 to 100 nM | CNC(=O)c1cnc2[nH]cc(-c3ccc4ncc(NCc5cccc(Cl)c5)c(N5CCC[C@H](N)C5)c4c3)c2c1 [Example 55, 3-{4-[(3S)-3-Aminopiperidin-1-yl]-3-{[(3-chlorophenyl)methyl]amino}quinolin-6-yl}-N-methyl-1H-pyrrolo[2,3-b]pyridine-5-carboxamide hydrochloride]
< 10 nM | < 10 nM | N[C@@H]1CCCN(c2ccnc3c(F)cc(-c4c[nH]c5ncc(C(=O)NCc6cncnc6)cc45)cc23)C1 [Example 49, 3-{4-[(3R)-3-Aminopiperidin-1-yl]-8-fluoroquinolin-6-yl}-N-(pyrimidin-5-ylmethyl)-1H-pyrrolo[2,3-b]pyridine-5-carboxamide hydrochloride]
< 10 nM | < 10 nM | CNC(=O)c1cnc2[nH]cc(-c3cc(F)c4nccc(-c5cccnc5)c4c3)c2c1 [Example 39, 3-[8-Fluoro-4-(pyridin-3-yl)quinolin-6-yl]-N-methyl-1H-pyrrolo[2,3-b]pyridine-5-carboxamide]

Second part, the molecule before the results:

Compound | IC50 (DYRK1B) | IC50 (DYRK1A)
C=CCN(C)C(=O)c1cnc2[nH]cc(-c3ccc4nccc(Cl)c4c3)c2c1 [Example 20, 3-(4-Chloroquinolin-6-yl)-N-methyl-N-(prop-2-en-1-yl)-1H-pyrrolo[2,3-b]pyridine-5-carboxamide] | < 10 nM | 10 to 100 nM
FC(F)(F)Oc1cc(-c2c[nH]c3ncccc23)cc2cccnc12 [Example 14, 6-{1H-Pyrrolo[2,3-b]pyridin-3-yl}-8-(trifluoromethoxy)quinoline] | 10 to 100 nM | > 100 nM
CNC(=O)c1cnc2[nH]cc(-c3ccc4nccc(-c5cccnc5)c4c3)c2c1 [Example 22, N-Methyl-3-[4-(pyridin-3-yl)quinolin-6-yl]-1H-pyrrolo[2,3-b]pyridine-5-carboxamide] | < 10 nM | < 10 nM
C=CCCCc1ccnc2ccc(-c3c[nH]c4ncc(CN(C)CC=C)cc34)cc12 [Example 21, Methyl({3-[4-(pent-4-en-1-yl)quinolin-6-yl]-1H-pyrrolo[2,3-b]pyridin-5-yl}methyl)(prop-2-en-1-yl)amine] | < 10 nM | 10 to 100 nM
CNC(=O)c1cnc2[nH]cc(-c3cc(F)c4ncccc4c3)c2c1 [Example 30, 3-(8-Fluoroquinolin-6-yl)-N-methyl-1H-pyrrolo[2,3-b]pyridine-5-carboxamide] | < 10 nM | < 10 nM
NCCCNC(=O)c1cnc2[nH]cc(-c3cc(F)c4nccc(-c5cccnc5)c4c3)c2c1 [Example 37, N-(3-Aminopropyl)-3-[8-fluoro-4-(pyridin-3-yl)quinolin-6-yl]-1H-pyrrolo[2,3-b]pyridine-5-carboxamide hydrochloride] | < 10 nM | < 10 nM
C=CCN(C)C(=O)c1cnc2[nH]cc(-c3cc(F)c4ncccc4c3)c2c1 [Example 27, 3-(8-Fluoroquinolin-6-yl)-N-methyl-N-(prop-2-en-1-yl)-1H-pyrrolo[2,3-b]pyridine-5-carboxamide] | < 10 nM | < 10 nM
C=CC1CN2CCC1CC2[C@H](O)c1ccnc2ccc(-c3c[nH]c4ncccc34)cc12 (stereo in doubt) [Example 9, {5-Ethenyl-1-azabicyclo[2.2.2]octan-2-yl}(6-{1H-pyrrolo[2,3-b]pyridin-3-yl}quinolin-4-yl)methanol] | < 10 nM | < 10 nM
Cc1cc(-c2c[nH]c3ncccc23)cc2c(-c3ccccc3)ccnc12 [Example 17, 8-Methyl-4-phenyl-6-{1H-pyrrolo[2,3-b]pyridin-3-yl}quinoline] | > 100 nM | > 100 nM
CNC(=O)c1cnc2[nH]cc(-c3ccc4nccc(Cl)c4c3)c2c1 [Example 24, 3-(4-Chloroquinolin-6-yl)-N-methyl-1H-pyrrolo[2,3-b]pyridine-5-carboxamide] | < 10 nM | < 10 nM
NC(=O)c1cnc2[nH]cc(-c3cc(F)c4ncccc4c3)c2c1 [Example 33, 3-(8-Fluoroquinolin-6-yl)-1H-pyrrolo[2,3-b]pyridine-5-carboxamide] | < 10 nM | < 10 nM

Source: US10577365B2, “Derivatives of quinoline as inhibitors of DYRK1A and/or DYRK1B kinases” (Felicitex Therapeutics, Inc., priority 2016, dated 2020)
